In PMC7893776, “Selecting an anti-malarial clinical candidate from two potent dihydroisoquinolones” (Malaria Journal, 2021):

Assays:
Format in all cases: in vitro ADME
[1] = Microsomal stability, human; conditions: human microsomes; for CLint in vitro: independent replicate to Table 4; for CLint in vivo: scaled up using PBSF
Protocol: (§1) The metabolic stability assay was performed by incubating compounds individually (0.8, 4, or 20 µM) with mouse, rat, dog and human liver microsomes (Fisher, 0.5 mg/mL protein concentration) at 37 °C. The metabolic reaction was initiated by the addition of a NADPH-regenerating system and quenched at various time points by the addition of acetonitrile according to a published method.
(§2) The remaining concentration of each compound was measured as a ratio of peak area to the internal standard. The log peak area ratio was plotted vs. time (h), and the slope was determined to calculate the elimination rate constant [k = (− 2.303) * slope]. If deviation from first order kinetics was evident, only the initial linear portion of the plot was used to determine the rate constate, k. The half-life (h) was calculated as t1/2 = 0.693/k. Intrinsic clearance in vitro was calculated as CLintin vitro = (1000)*(0.693/t1/2*60)/0.5, where microsomal concentration in the reaction solution was 0.5 mg/mL; 1000 and 60 are scaling factors for volume (µL) and time (min), respectively. The intrinsic in vitro clearance was scaled to the intrinsic in vivo clearance using physiology based scaling factor (PBSF): CLint in vivo= CLint in vitro *PBSF: (microsome protein/gram liver) * (gram liver/kg b.w.), with PBSF: 47 (mouse), 47(rat), 58 (dog), 32 (human); and liver weight proportions: 54.9 (mouse), 36.6 (rat), 32.9 (dog) 25.7 (human).

[2] = Microsomal stability, rat; conditions: rat microsomes; for CLint in vitro: independent replicate to Table 4; for CLint in vivo: scaled up using PBSF
Protocol: as §1, §2

[3] = Microsomal stability, dog; conditions: dog microsomes; for CLint in vitro: independent replicate to Table 4; for CLint in vivo: scaled up using PBSF
Protocol: as §1, §2

[4] = Microsomal stability, mouse; conditions: mouse microsomes; for CLint in vitro: independent replicate to Table 4; for CLint in vivo: scaled up using PBSF
Protocol: as §1, §2

N#Cc1cc(NC(=O)[C@@H]2c3ccccc3C(=O)N(CC(F)(F)F)[C@H]2c2cccnc2)ccc1F [(-)-SJ733]
CLint ([1]; 0.8 µM): 61.7 ± 13.2 µl/min/mg protein | t1/2 ([1]; 0.8 µM): 0.4 ± 0.1 h | CLint in vitro ([1]; 0.8 µM): 52.4 ± 1.1 µl/min/mg protein | CLint in vivo ([1]; 0.8 µM): 47.2 ± 1.0 mL/min/kg | CLint in vitro ([1]; 4 µM): 40.4 ± 0.9 µl/min/mg protein | CLint in vivo ([1]; 4 µM): 36.4 ± 0.8 mL/min/kg | CLint in vitro ([1]; 20 µM): 25.3 ± 0.4 µl/min/mg protein | CLint in vivo ([1]; 20 µM): 22.7 ± 0.3 mL/min/kg | CLint ([2]; 0.8 µM): < 7 µl/min/mg protein | t1/2 ([2]; 0.8 µM): > 4 h | CLint in vitro ([2]; 0.8 µM): <7 µl/min/mg protein | CLint in vivo ([2]; 0.8 µM): <11.7 mL/min/kg | CLint in vitro ([2]; 4 µM): <7 µl/min/mg protein | CLint in vivo ([2]; 4 µM): <11.7 mL/min/kg | CLint in vitro ([2]; 20 µM): <7 µl/min/mg protein | CLint in vivo ([2]; 20 µM): <11.7 mL/min/kg | CLint ([3]; 0.8 µM): 10.9 ± 1.5 µl/min/mg protein | t1/2 ([3]; 0.8 µM): 2.2 ± 0.4 h | CLint in vitro ([3]; 0.8 µM): 9.8 ± 0.4 µl/min/mg protein | CLint in vivo ([3]; 0.8 µM): 14.1 ± 0.5 mL/min/kg | CLint in vitro ([3]; 4 µM): 9.5 ± 0.3 µl/min/mg protein | CLint in vivo ([3]; 4 µM): 13.7 ± 0.5 mL/min/kg | CLint in vitro ([3]; 20 µM): 6.0 ± 0.4 µl/min/mg protein | CLint in vivo ([3]; 20 µM): 8.6 ± 0.6 mL/min/kg | CLint ([4]; 0.8 µM): 32.1 ± 2.1 µl/min/mg protein | t1/2 ([4]; 0.8 µM): 0.8 ± 0.1 h | CLint in vitro ([4]; 0.8 µM): 30.6 ± 1.4 µl/min/mg protein | CLint in vivo ([4]; 0.8 µM): 71.7 ± 3.4 mL/min/kg | CLint in vitro ([4]; 4 µM): 26.9 ± 0.6 µl/min/mg protein | CLint in vivo ([4]; 4 µM): 63.0 ± 2.1 mL/min/kg | CLint in vitro ([4]; 20 µM): 10.5 ± 0.4 µl/min/mg protein

N#Cc1cc(NC(=O)[C@@H]2c3ccccc3C(=O)N(CC(F)(F)F)[C@H]2c2cn[nH]c2)ccc1F [(−)-SJ311]
CLint ([1]; 0.8 µM): < 7 µl/min/mg protein | t1/2 ([1]; 0.8 µM): > 4 h | CLint ([2]; 0.8 µM): < 7 µl/min/mg protein | t1/2 ([2]; 0.8 µM): > 4 h | CLint ([3]; 0.8 µM): < 7 µl/min/mg protein | t1/2 ([3]; 0.8 µM): > 4 h | CLint ([4]; 0.8 µM): < 7 µl/min/mg protein | t1/2 ([4]; 0.8 µM): > 4 h
